From ChEMBL document CHEMBL3885881, “DrugMatrix”

Organism: Rattus norvegicus
Assay: DrugMatrix - Regimen: Daily Repeat
Assay type: toxicity, organism-based, Sprague-Dawley
Set-up: regimen Daily Repeat, gender Male, age 6-8 weeks
Settings: in vivo, po, route oral GAVAGE, vehicle .5 % CMC; for ABSOLUTE BASOPHIL / ABSOLUTE EOSINOPHIL / ABSOLUTE LYMPHOCYTE / ABSOLUTE MONOCYTE / ABSOLUTE SEGMENTED NEUTROPHIL / BASOPHIL / EOSINOPHIL / ERYTHROCYTE COUNT / HEMATOCRIT / HEMOGLOBIN / LEUKOCYTE COUNT / LYMPHOCYTE / MEAN CORPUSCULAR HEMOGLOBIN / MEAN CORPUSCULAR HEMOGLOBIN CONCENTRATION / MEAN CORPUSCULAR VOLUME / MONOCYTE / NEUTROPHIL / NUCLEATED RED BLOOD CELLS / PLATELET COUNT: tissue Blood; for ALANINE AMINOTRANSFERASE / ALBUMIN / ALKALINE PHOSPHATASE / ASPARTATE AMINOTRANSFERASE / BLOOD UREA NITROGEN / CARBON DIOXIDE / CHLORIDE / CHOLESTEROL / CREATINE PHOSPHOKINASE / CREATININE / GLUCOSE / LACTATE DEHYDROGENASE / LIPASE / PHOSPHORUS / POTASSIUM / SODIUM / TOTAL BILIRUBIN / TOTAL PROTEIN / URIC ACID: tissue Plasma
[1] = 75 mg/kg, 120 h, dose level High, time 5 day
[2] = […], 72 h, dose 7.5 mg/Kg, dose level Low, time 3 day
[3] = […], 120 h, dose 7.5 mg/Kg, dose level Low, time 5 day

Cc1ccc(/N=C/N(C)/C=N/c2ccc(C)cc2C)c(C)c1 [AMITRAZ]
ABSOLUTE BASOPHIL [1]: 0 CELLS/uL | ABSOLUTE EOSINOPHIL [1]: 78.67 CELLS/uL | ABSOLUTE LYMPHOCYTE [1]: 10570.33 CELLS/uL | ABSOLUTE MONOCYTE [1]: 41.33 CELLS/uL | ABSOLUTE SEGMENTED NEUTROPHIL [1]: 1409.67 CELLS/uL | BASOPHIL [1]: 0% | EOSINOPHIL [1]: 0.67% | ERYTHROCYTE COUNT [1]: 6.55 x10E6/uL | HEMATOCRIT [1]: 40.27% | HEMOGLOBIN [1]: 16.2 G/DL | LEUKOCYTE COUNT [1]: 12.1 x10E3/uL | LYMPHOCYTE [1]: 87.33% | MEAN CORPUSCULAR HEMOGLOBIN [1]: 24.73 pg | MEAN CORPUSCULAR HEMOGLOBIN CONCENTRATION [1]: 40.2 G/DL | MEAN CORPUSCULAR VOLUME [1]: 61.53 fL | MONOCYTE [1]: 0.33% | NEUTROPHIL [1]: 11.67% | NUCLEATED RED BLOOD CELLS [1]: 0 /100WBC | PLATELET COUNT [1]: 1330 x10E3/uL | ALANINE AMINOTRANSFERASE [1]: 42.33 u/L | ALBUMIN [1]: 4.3 G/DL | ALKALINE PHOSPHATASE [1]: 203.33 u/L | ASPARTATE AMINOTRANSFERASE [1]: 91.33 u/L | BLOOD UREA NITROGEN [1]: 18.67 mg/dL | CARBON DIOXIDE [1]: 21.67 mmol/L | CHLORIDE [1]: 104.33 MEQ/L | CHOLESTEROL [1]: 74 mg/dL | CREATINE PHOSPHOKINASE [1]: 460.67 u/L | CREATININE [1]: 0.26 mg/dL | GLUCOSE [1]: 172 mg/dL | LACTATE DEHYDROGENASE [1]: 250.67 u/L | LIPASE [1]: 11.67 u/L | PHOSPHORUS [1]: 15.2 mg/dL | POTASSIUM [1]: 7.47 MEQ/L | SODIUM [1]: 148.4 MEQ/L | TOTAL BILIRUBIN [1]: 0.2 mg/dL | TOTAL PROTEIN [1]: 6.17 G/DL | URIC ACID [1]: 2.83 mg/dL | ABSOLUTE BASOPHIL [2]: 0 CELLS/uL | ABSOLUTE EOSINOPHIL [2]: 136 CELLS/uL | ABSOLUTE LYMPHOCYTE [2]: 19510 CELLS/uL | ABSOLUTE MONOCYTE [2]: 209.33 CELLS/uL | ABSOLUTE SEGMENTED NEUTROPHIL [2]: 1444.67 CELLS/uL | BASOPHIL [2]: 0% | EOSINOPHIL [2]: 0.67% | ERYTHROCYTE COUNT [2]: 5.3 x10E6/uL | HEMATOCRIT [2]: 33.37% | HEMOGLOBIN [2]: 13.33 G/DL | LEUKOCYTE COUNT [2]: 21.3 x10E3/uL | LYMPHOCYTE [2]: 91.33% | MEAN CORPUSCULAR HEMOGLOBIN [2]: 25.17 pg | MEAN CORPUSCULAR HEMOGLOBIN CONCENTRATION [2]: 39.97 G/DL | MEAN CORPUSCULAR VOLUME [2]: 63.07 fL | MONOCYTE [2]: 1% | NEUTROPHIL [2]: 7% | NUCLEATED RED BLOOD CELLS [2]: 0.33 /100WBC | PLATELET COUNT [2]: 1400.67 x10E3/uL | ALANINE AMINOTRANSFERASE [2]: 46.33 u/L | ALBUMIN [2]: 4.13 G/DL | ALKALINE PHOSPHATASE [2]: 272 u/L | ASPARTATE AMINOTRANSFERASE [2]: 87.67 u/L | BLOOD UREA NITROGEN [2]: 17.33 mg/dL | CARBON DIOXIDE [2]: 25.33 mmol/L | CHLORIDE [2]: 103.33 MEQ/L | CHOLESTEROL [2]: 75.67 mg/dL | CREATINE PHOSPHOKINASE [2]: 199.33 u/L | CREATININE [2]: 0.22 mg/dL | GLUCOSE [2]: 185.67 mg/dL | LACTATE DEHYDROGENASE [2]: 127 u/L | LIPASE [2]: 8.67 u/L | PHOSPHORUS [2]: 11.97 mg/dL | POTASSIUM [2]: 6.06 MEQ/L | SODIUM [2]: 144.17 MEQ/L | TOTAL BILIRUBIN [2]: 0.23 mg/dL | TOTAL PROTEIN [2]: 5.7 G/DL | URIC ACID [2]: 2.07 mg/dL | ABSOLUTE BASOPHIL [3]: 0 CELLS/uL | ABSOLUTE EOSINOPHIL [3]: 0 CELLS/uL | ABSOLUTE LYMPHOCYTE [3]: 13348 CELLS/uL | ABSOLUTE MONOCYTE [3]: 98 CELLS/uL | ABSOLUTE SEGMENTED NEUTROPHIL [3]: 1187.33 CELLS/uL | BASOPHIL [3]: 0% | EOSINOPHIL [3]: 0% | ERYTHROCYTE COUNT [3]: 5.41 x10E6/uL | HEMATOCRIT [3]: 34.03% | HEMOGLOBIN [3]: 13.6 G/DL | LEUKOCYTE COUNT [3]: 14.63 x10E3/uL | LYMPHOCYTE [3]: 91.33% | MEAN CORPUSCULAR HEMOGLOBIN [3]: 25.17 pg | MEAN CORPUSCULAR HEMOGLOBIN CONCENTRATION [3]: 39.93 G/DL | MEAN CORPUSCULAR VOLUME [3]: 63.03 fL | MONOCYTE [3]: 0.67% | NEUTROPHIL [3]: 8% | NUCLEATED RED BLOOD CELLS [3]: 0.33 /100WBC | PLATELET COUNT [3]: 1467.33 x10E3/uL | ALANINE AMINOTRANSFERASE [3]: 52.67 u/L | ALBUMIN [3]: 4.13 G/DL | ALKALINE PHOSPHATASE [3]: 370.67 u/L | ASPARTATE AMINOTRANSFERASE [3]: 78.67 u/L | BLOOD UREA NITROGEN [3]: 18 mg/dL | CARBON DIOXIDE [3]: 30.67 mmol/L | CHLORIDE [3]: 99.67 MEQ/L | CHOLESTEROL [3]: 63 mg/dL | CREATINE PHOSPHOKINASE [3]: 265.67 u/L | CREATININE [3]: 0.18 mg/dL | GLUCOSE [3]: 137.33 mg/dL | LACTATE DEHYDROGENASE [3]: 130 u/L | LIPASE [3]: 9 u/L | PHOSPHORUS [3]: 11.77 mg/dL | POTASSIUM [3]: 6.67 MEQ/L | SODIUM [3]: 143.1 MEQ/L | TOTAL BILIRUBIN [3]: 0.2 mg/dL | TOTAL PROTEIN [3]: 5.9 G/DL | URIC ACID [3]: 1.83 mg/dL
